Assay results as given in publication PMC7515950, “Physiologically based pharmacokinetic modeling to assess metabolic drug–drug interaction risks and inform the drug label for fedratinib” (Cancer Chemotherapy and Pharmacology, 2020).

How the values were obtained:
[1] = Physicochemical properties (Study QUA-PG-2011-20593); settings: for pKa: free form is a diprotic base
Source text: (§1) The physicochemical properties and blood binding parameters of fedratinib including molecular weight, logP, pKa, fu, and B/P were experimentally measured and listed in Table 1.

[2] = In vitro binding to human plasma proteins (Study LPR1082); assay type: in vitro ADME; settings: mainly bound to α1-acid glycoprotein, read-out: fu (unbound fraction in plasma)
Source text: as §1

[3] = Caco-2/TC7 permeability (Study AIV0208); assay type: in vitro ADME, human; settings: human, Caco-2
Source text: (§2) By default, the QGut is set to be the mean value (i.e., 6.5 L/h) in the PBPK model of fedratinib.

Caco-2/TC7 = Caco-2/TC7 permeability (Study AIV0208); assay type: in vitro ADME, human; settings: Apical pH:Basolateral pH 7.4:7.4; Simcyp input
Source text: as §2

CYP2C8 = target: T1, CYP2C8 (Homo sapiens, UniProt P10632); assay: CYP inhibition in human liver microsomes (MIH0887), CYP2C8; assay type: in vitro ADME; settings: HLM, apparent Ki, reversible inhibition
T1 construct: from tissue; host or cells: human liver microsomes
T1 sequence (P10632 1-490): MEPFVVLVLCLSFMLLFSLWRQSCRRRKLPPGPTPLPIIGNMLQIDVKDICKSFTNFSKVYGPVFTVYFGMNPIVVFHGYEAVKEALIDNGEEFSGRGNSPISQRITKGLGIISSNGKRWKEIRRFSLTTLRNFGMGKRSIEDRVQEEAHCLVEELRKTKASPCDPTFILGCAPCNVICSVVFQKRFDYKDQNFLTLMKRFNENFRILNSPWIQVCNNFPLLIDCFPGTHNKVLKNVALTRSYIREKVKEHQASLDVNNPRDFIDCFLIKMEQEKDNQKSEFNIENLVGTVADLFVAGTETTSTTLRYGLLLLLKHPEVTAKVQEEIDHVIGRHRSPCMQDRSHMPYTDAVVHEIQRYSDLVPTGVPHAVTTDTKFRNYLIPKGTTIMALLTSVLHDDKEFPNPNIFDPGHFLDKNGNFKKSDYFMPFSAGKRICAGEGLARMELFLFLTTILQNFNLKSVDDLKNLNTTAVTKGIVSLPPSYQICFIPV
Description: (§3) The CYP enzyme reverse inhibition and mechanism-based inhibition (MBI) parameters were estimated in the human liver microsome (HLM) incubation in vitro studies. The reported reversible inhibition parameter (i.e., apparent Ki) values for CYP2C8, CYP2C9, and CYP2D6, along with the MBI parameters (i.e., KI or Kapp and kinact) for CYP2C19 and CYP3A4, were supplied to the PBPK DDI model (see Table 2).

CYP2C9 = target: T2, CYP2C9 (Homo sapiens, UniProt P11712); assay: CYP inhibition in human liver microsomes (MIH0887), CYP2C9; assay type: in vitro ADME; settings: HLM, apparent Ki, reversible inhibition
T2 construct: from tissue; host or cells: human liver microsomes
Description: as §3

CYP2D6 = target: T3, CYP2D6 (Homo sapiens, UniProt P10635); assay: CYP inhibition in human liver microsomes (MIH0887), CYP2D6; assay type: in vitro ADME; settings: HLM, apparent Ki, reversible inhibition
T3 construct: from tissue; host or cells: human liver microsomes
Description: as §3

CYP2C19 = target: T4, CYP2C19 (Homo sapiens, UniProt P33261); assay: CYP mechanism-based inhibition in human liver microsomes (MIH0887), CYP2C19; assay type: in vitro ADME; settings: HLM
T4 construct: from tissue; host or cells: human liver microsomes
Description: as §3

CYP3A4 = target: T5, CYP3A4 (Homo sapiens, UniProt P08684); assay: CYP reversible and mechanism-based inhibition in human liver microsomes (MIH0887), CYP3A4; assay type: in vitro ADME
T5 construct: from tissue; host or cells: human liver microsomes
Description: as §3

[4] = Biliary excretion in bile-duct cannulated rats (PDM-07-10348-059); assay type: in vivo; settings: iv 5 mg/kg
Source text: The biliary excretion of unchanged drug accounts for 2.3% of the total intravenous dose in bile-duct cannulated (BDC) rats.

[5] = Clinical single-dose PK of fedratinib in healthy subjects; assay type: in vivo, human; settings: corresponding to dose-normalized AUC of 30 ng·h/(mL·mg)
Description: First, the developed PBPK model was verified against clinical observations in healthy subjects administered single doses of 300 mg fedratinib alone without further modifications. Second, the developed PBPK model was verified against clinical data under repeated dosing scenarios. As no repeated-dosing studies have been conducted in healthy volunteers, the model verification was conducted using the clinical PK profiles from myelofibrosis (MF) patients administered repeated doses of 300, 400, or 500 mg fedratinib once a day (QD). Third, the PBPK model of fedratinib was verified against the clinical data observed in healthy volunteers co-dosed with fedratinib (300 mg, single dose) and ketoconazole (200 mg BID).
AUC refers to AUCinf for the single dose scenarios and AUCτ for the repeated QD dose scenarios. The number of subjects (n) = 6 in TDU12620, n = 17 in INT12894, n = 10-11 in ARD11936, and n = 100 in virtual trial simulations, respectively. All model simulations listed in the table were simulated using the default “Healthy Volunteers” and “Cancer” population files provided in Simcyp® (V17R1). The prediction error is calculated using PE = (GMprediction – GMobservation)/GMobservation ×100%, where GM refers to geometric mean. SD refers to standard deviation.

P-gp = P-gp (Homo sapiens, UniProt P08183); assay: P-gp interaction in Caco-2/TC7 (Study AIV0208); assay type: in vitro ADME; parameters: endogenous in cells; host or cells: Caco-2/TC7
Source text: The reported IC50 values were converted to Ki values using the Cheng-Prusoff equation [10]:
The transporter inhibition parameters (Ki) for fedratinib were derived from the experimentally determined IC50 values using the Cheng-Prusoff equation, i.e., Ki = IC50/(1+[S]/Km) with the substrate concentrations ([S]) reported in the experimental studies and the substrate Km values collected from literature, as summarized in Table 13.

P-gp, sequence (P08183 whole entry): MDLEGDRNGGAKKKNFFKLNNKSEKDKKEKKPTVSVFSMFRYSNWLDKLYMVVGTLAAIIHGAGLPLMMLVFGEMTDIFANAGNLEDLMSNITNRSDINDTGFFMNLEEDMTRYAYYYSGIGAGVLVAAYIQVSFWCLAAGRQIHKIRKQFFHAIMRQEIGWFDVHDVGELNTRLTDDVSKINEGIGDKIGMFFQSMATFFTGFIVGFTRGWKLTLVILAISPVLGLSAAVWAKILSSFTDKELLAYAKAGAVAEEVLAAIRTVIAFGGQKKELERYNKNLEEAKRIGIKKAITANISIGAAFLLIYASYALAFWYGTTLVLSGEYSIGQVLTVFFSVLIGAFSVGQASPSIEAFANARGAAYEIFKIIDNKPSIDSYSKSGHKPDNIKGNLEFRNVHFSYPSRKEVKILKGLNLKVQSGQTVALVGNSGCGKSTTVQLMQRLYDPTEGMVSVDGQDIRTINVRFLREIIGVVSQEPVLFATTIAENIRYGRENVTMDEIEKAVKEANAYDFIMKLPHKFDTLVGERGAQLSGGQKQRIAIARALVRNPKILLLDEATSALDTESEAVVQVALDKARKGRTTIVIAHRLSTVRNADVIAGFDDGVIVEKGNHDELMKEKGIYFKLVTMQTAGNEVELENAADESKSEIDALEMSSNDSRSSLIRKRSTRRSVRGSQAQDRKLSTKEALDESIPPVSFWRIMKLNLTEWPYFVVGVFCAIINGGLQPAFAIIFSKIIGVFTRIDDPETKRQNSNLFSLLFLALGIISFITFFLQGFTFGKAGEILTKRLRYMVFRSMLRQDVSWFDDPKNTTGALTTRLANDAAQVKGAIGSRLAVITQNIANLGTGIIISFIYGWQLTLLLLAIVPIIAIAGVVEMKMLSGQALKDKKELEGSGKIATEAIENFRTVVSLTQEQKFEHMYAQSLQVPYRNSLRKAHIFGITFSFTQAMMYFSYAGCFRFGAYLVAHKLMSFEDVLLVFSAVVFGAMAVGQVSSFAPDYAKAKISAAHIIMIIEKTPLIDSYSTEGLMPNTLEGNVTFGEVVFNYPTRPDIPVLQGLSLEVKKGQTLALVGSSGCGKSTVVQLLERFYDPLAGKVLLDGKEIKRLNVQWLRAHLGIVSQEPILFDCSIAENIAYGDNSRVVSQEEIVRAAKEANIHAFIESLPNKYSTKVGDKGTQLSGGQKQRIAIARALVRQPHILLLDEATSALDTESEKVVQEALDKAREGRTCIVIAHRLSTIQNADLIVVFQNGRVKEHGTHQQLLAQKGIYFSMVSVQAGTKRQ
T5 sequence (P08684 2-503 limits assumed): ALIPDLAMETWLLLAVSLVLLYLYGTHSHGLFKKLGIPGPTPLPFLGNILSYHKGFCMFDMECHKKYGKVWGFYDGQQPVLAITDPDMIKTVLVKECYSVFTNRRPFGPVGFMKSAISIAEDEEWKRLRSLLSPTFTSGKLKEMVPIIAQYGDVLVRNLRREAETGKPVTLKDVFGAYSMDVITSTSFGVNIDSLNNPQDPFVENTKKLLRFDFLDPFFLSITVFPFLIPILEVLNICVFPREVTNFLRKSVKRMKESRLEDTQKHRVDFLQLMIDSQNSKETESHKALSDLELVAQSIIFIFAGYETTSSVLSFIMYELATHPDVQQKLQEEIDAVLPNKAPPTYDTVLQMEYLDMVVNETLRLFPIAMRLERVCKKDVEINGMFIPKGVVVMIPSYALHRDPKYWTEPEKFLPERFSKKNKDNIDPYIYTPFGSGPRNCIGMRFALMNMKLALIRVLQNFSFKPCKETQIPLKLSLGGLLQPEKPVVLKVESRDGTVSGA
T4 sequence (P33261 whole entry): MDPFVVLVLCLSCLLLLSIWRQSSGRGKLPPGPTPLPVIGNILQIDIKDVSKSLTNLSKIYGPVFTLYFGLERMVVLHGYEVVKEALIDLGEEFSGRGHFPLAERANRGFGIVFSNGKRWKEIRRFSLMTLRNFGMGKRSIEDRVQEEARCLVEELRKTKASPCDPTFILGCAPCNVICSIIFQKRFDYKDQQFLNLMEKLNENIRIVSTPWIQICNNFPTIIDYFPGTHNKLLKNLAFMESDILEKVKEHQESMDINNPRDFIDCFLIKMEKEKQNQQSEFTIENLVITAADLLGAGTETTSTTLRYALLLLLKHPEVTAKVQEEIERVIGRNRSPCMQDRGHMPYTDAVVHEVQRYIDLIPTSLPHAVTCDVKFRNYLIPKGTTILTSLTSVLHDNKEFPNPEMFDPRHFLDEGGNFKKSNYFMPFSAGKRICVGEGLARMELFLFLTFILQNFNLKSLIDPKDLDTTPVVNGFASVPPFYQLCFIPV
T3 sequence (P10635 whole entry): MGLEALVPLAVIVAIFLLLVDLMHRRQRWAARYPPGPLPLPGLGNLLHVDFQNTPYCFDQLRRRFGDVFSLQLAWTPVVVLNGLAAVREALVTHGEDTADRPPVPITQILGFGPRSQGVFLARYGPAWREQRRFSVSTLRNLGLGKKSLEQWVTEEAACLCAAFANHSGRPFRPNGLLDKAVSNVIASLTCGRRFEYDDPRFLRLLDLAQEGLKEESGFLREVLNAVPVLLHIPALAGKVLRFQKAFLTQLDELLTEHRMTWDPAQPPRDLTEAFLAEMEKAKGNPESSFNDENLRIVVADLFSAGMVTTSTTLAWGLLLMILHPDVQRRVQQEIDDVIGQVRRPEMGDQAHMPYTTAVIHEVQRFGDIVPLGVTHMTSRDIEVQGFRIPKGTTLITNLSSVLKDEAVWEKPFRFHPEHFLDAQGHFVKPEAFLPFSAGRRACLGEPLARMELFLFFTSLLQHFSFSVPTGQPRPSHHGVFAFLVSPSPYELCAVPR
T2 sequence (P11712 whole entry): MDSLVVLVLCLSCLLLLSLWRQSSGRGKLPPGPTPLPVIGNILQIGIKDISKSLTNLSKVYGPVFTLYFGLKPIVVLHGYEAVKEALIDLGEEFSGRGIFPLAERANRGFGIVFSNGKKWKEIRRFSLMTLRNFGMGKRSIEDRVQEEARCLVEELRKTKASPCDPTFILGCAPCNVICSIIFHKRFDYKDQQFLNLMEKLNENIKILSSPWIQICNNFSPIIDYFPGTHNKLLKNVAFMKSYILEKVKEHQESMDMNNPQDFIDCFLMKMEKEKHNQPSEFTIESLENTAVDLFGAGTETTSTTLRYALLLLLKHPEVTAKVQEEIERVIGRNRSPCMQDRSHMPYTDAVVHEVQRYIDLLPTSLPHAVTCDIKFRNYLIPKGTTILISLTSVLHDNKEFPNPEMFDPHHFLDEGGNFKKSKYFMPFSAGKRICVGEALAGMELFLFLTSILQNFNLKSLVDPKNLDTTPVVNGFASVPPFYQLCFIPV

LogPo:w ([1]; Study QUA-PG-2011-20593): 3.500
logP ([1]; octanol/water, Study QUA-PG-2011-20593): 3.5
pKa ([1]; pKa1 (base)): 6.4
pKa ([1]; pKa2 (base)): 9.6
fraction unbound [2]: 0.05
Papp at 40 μM ([3]; Apical pH:Basolateral pH 6.5:7.4, 40 μM fedratinib): 0.21 ×10⁻⁶ cm/s
Papp at 100 μM ([3]; Apical pH:Basolateral pH 7.4:7.4, 100 μM fedratinib): 17.8 ×10⁻⁶ cm/s
PCaco-2 (Caco-2/TC7): 17.800 10E-06 cm/s
Ki (CYP2C8): 50.4 µM
Ki (CYP2C9): 26.1 µM
Ki (CYP2D6): 10.1 µM
CYP2C19 KI or Kapp (CYP2C19): 112 µM
CYP2C19 KI or Kapp (CYP2C19; listed as fedratinib): 112.000 µM
kinact (CYP2C19; human, human liver microsomes): 0.000558 s⁻¹
Ki (CYP3A4; HLM, assuming Ki = IC50/2): 9.55 µM
CYP3A4 KI or Kapp (CYP3A4; HLM, mechanism-based inhibition): 1.57 µM
CYP3A4 KI or Kapp (CYP3A4; HLM, mechanism-based inhibition, listed as fedratinib): 1.570 µM
kinact (CYP3A4; human, human liver microsomes, HLM, mechanism-based inhibition): 0.000717 s⁻¹
IC50 (CYP3A4; midazolam as substrate, absence of NADPH during pre-incubation, read-out: CYP3A IC50): 19.1 µM
biliary excretion of unchanged drug, percent of total intravenous dose [4]: 2.3%
CL/F [5]: 33.3 L/h
P-gp substrate in vitro (P-gp): substrate
Ki (P-gp; from IC50 by Cheng-Prusoff, probe digoxin): 10 µM
IC50 (P-gp; probe digoxin 5 μM): 10.1 µM
SMILES: Cc1cnc(Nc2ccc(OCCN3CCCC3)cc2)nc1Nc1cccc(S(=O)(=O)NC(C)(C)C)c1 [Fedratinib]
